Where two headings read alike, the source gives them in different places.
How the values were obtained:
[1] = preliminary toxicity studies in Balb/C mice; format: in vivo
Protocol: If it is assumed 50 mg/kg is the minimum lethal dose and it is assumed <0.05 mg/kg is the minimum effective dose, the lowest possible therapeutic ratio for NPT 16416 is 50/0.05 or 1000/1.0. It is believed that the toxicity is far less by the oral route since 500 mg/kg p.o. produced no deaths in Balb/c mice.

[2] = tested on: macrophages; assay: lymphokine (macrophage mitogenic factor, MMF) induced macrophage proliferation in vitro; format: cell-based
Text: (2) Lymphokine (macrophage mitogenic factor, MMF) induced macrophage proliferation (in vitro
2. NPT 16416 is also capable of augmenting the lymphokine (MMF) induced proliferation of macrophages causing a 70% enhancement of macrophage proliferation.

[3] = tested on: Herpes Simplex Virus Type I; assay: inhibition of Herpes Simplex Virus replication; format: cell-based; details: read-out: % inhibition of viral growth
[4] = tested on: murine spleen cells, LPS induced (B-cells); assay: LPS induced lymphocyte proliferation in mouse spleen cells in vitro; format: cell-based, mouse (Balb/C); details: for activity at 0.01 µg/mL / activity at 0.1 µg/mL / activity at 1 µg/mL / activity at 2.5 µg/mL / activity at 5 µg/mL / activity at 25 µg/mL / activity at 50 µg/mL: Mus musculus, B-cell
Text: (1) Mitogen-(Lipopolysaccharide, LPS or Con A) induced lymphocyte proliferation using murine spleen cells (in vitro)
1. […] LPS is a mitogen which acts preferentially on B-cells. […] Con A is considered a T-cell mitogen.
1. Balb/C male mice, 7-8 weeks old, are used up to 20-24 weeks of age.
2. The animals are sacrificed by cervical dislocation and the animals' left sides swabbed with 70% ethanol. An incision is made between the lower ribs and pelvis, laterally from front to back, and the skin retracted. Aseptic technique is to be observed from this point on.
3. The spleen is gently removed with sterile forceps. […] When all spleens have been collected and cleaned they are placed in a second petri dish containing 3 ml cold RPMI.
4. Spleen cell suspensions are prepared by gentle mincing of the tissue with a sterile blade and filtering through #100 stainless steel mesh.
6. An aliquot of the above suspension is prepared for cell counting as follows: 0.1 ml of suspension is diluted to 1.0 ml with 3% acetic acid and let stand at room temperature for at least five minutes. The sample is then diluted 1:100 with "Isoton II" (Curtis-Matheson Co.) and counted in a coulter counter.
MURINE SPLENOCYTE STIMULATION WITH CONCANAVALIN A (CON A), LIPOPOLYSACCHARIDE (LPS), AND ALLOGENEIC SPLENOCYTES (LMC).
There is set forth below the standard procedure which should be modified according to the solubility and other properties of the particular compound tested.
Add ~10 ml RPMI to 1.79 g HEPES and vortex until completely dissolved. […] Allow to warm temperature before use.
6. LPS (Sigma, E, coli serotype #011:84)--~1 mg/ml. […] Remove ~10 ml for dissolving HEPES (0.358 g) and filter HEPES solution. Add four 25 mg bottles of LPS to remaining media and incubate at 37° C. for 1 hour. Filter through 0.22 μm filters, add filtered HEPES, aliquot in 2 ml and store at -70° C.
8. Tritiated thymidine (^3 H-TdR, Schwartz-Mann, 6 Ci/mM). Remove a slightly larger volume of ^3 H-TdR than needed from vial with a 1 cc syringe and place volume in the cap of a small sterile plastic tube. […] Vortex thoroughly before adding to plates.
1. Animals are sacrificed by cervical dislocation killing one from each group and processing the cells individually before killing the next animal. Swab each animal with 70% ethanol before surgery. […] Use 8 vertical strokes (or enough to break up all tissue) with Teflon-tipped homogenizer. Filter each sample through a 100 mesh screen into a 50 ml tube. […] After all samples have been spun, vortex each briefly and let sit for 1 hour. Vortex each sample ~5 seconds, waiting ~10 seconds between each sample. Let sit 5 minutes, then pipet cell suspension into 5 ml (12×75 mm) tube being careful not to remove any sediment. Remove 50 ul cell suspension using micropipetter, carefully wipe pipet tip with kimwipe and pipet into 20 ml Isoton in Coulter counter vial, rinsing pipet several times in the Isoton. Add 6 drops of CyMet and swirl vial to mix. Use the following Coulter counter settings: Amplification-1, Threshold-10, and Aperture Current-1. Clean counter with Isoterge the morning of experiment and count background before standardizing with CH 0.60 Hematology Controls. After cell counts are obtained, dilute to 6×10^6 cells/ml with supplemented RPMI and aliquot into 3 tubes for the 3 assays.
1. Pipet 100 μl control media (supplemented RPMI) or appropriate dilution of mitogen (starting with lowest concentration) into microtiter plate using Titertek multi-channel pipetter. Place plates in 37° C. CO2 incubator with CO2 set at 0.5 after each plate has been pipetted. Pipet 100 μl responder cells into wells starting with most dilute mitogen concentration. Place plates in incubator as they are filled and after all plates are in incubator, let sit for 10-20 minutes. Wrap plates with plastic wrap, recover with top, replace in incubator, and reset CO2 to ~0.05. Save ~50 ml supplemented RPMI at 4° C. for thymidine dilution.

Compound: Oc1ncnc2c1nc1n2CCS1 [NPT 16416, 3-hydroxy-7,8-dihydrothiazolo-[3,2e]-purine]
- mortality ([1]; 50 mg/kg i.p., Balb/C mice): no mortality
- deaths ([1]; 500 mg/kg p.o., Balb/c mice): no deaths
- enhancement of lymphokine (MMF) induced macrophage proliferation [2]: 70%
- inhibition at 37.5 µg/mL ([3]; 37.5 μg/ml): 33%
- inhibition at 75 µg/mL ([3]; 75 μg/ml): 61%
- inhibition at 150 µg/mL ([3]; 150 μg/ml): 65%
- activity at 0.01 µg/mL ([4]; read-out: Hi Mitogen D/C LPS): 105%
- activity at 0.01 µg/mL ([4]; read-out: Lo Mitogen D/C LPS): 130%
- activity at 0.1 µg/mL ([4]; drug 100 ng/ml, LPS 5 μg/ml, drug/control, read-out: Lo Mitogen D/C LPS): 157%
- activity at 0.1 µg/mL ([4]; drug 100 ng/ml, LPS 100 μg/ml, drug/control, read-out: Hi Mitogen D/C LPS): 114%
- activity at 1 µg/mL ([4]; drug 1,000 ng/ml, LPS 5 μg/ml, drug/control, read-out: Lo Mitogen D/C LPS): 135%
- activity at 1 µg/mL ([4]; drug 1,000 ng/ml, LPS 5 μg/ml, read-out: LPS D/C (maximum values)): 201%
- activity at 1 µg/mL ([4]; drug 1,000 ng/ml, LPS 100 μg/ml, drug/control, read-out: Hi Mitogen D/C LPS): 117%
- activity at 2.5 µg/mL ([4]; drug 2,500 ng/ml, LPS 5 μg/ml, drug/control, read-out: Lo Mitogen D/C LPS): 136%
- activity at 2.5 µg/mL ([4]; drug 2,500 ng/ml, LPS 100 μg/ml, drug/control, read-out: Hi Mitogen D/C LPS): 107%
- activity at 5 µg/mL ([4]; drug 5,000 ng/ml, LPS 5 μg/ml, drug/control, P < 0.05, read-out: Lo Mitogen D/C LPS): 168%
- activity at 5 µg/mL ([4]; drug 5,000 ng/ml, LPS 100 μg/ml, drug/control, read-out: Hi Mitogen D/C LPS): 105%
- activity at 25 µg/mL ([4]; drug 25,000 ng/ml, LPS 5 μg/ml, drug/control, P < 0.005, read-out: Lo Mitogen D/C LPS): 249%
- activity at 25 µg/mL ([4]; drug 25,000 ng/ml, LPS 5 μg/ml, read-out: LPS D/C (maximum values)): 236%
- activity at 25 µg/mL ([4]; drug 25,000 ng/ml, LPS 100 μg/ml, drug/control, P < 0.025, read-out: Hi Mitogen D/C LPS): 157%
- activity at 50 µg/mL ([4]; drug 50,000 ng/ml, LPS 5 μg/ml, drug/control, P < 0.005, read-out: Lo Mitogen D/C LPS): 280%
- activity at 50 µg/mL ([4]; drug 50,000 ng/ml, LPS 100 μg/ml, drug/control, P < 0.005, read-out: Hi Mitogen D/C LPS): 189%
- CPM + LPS ([4]; drug 10 ng/ml, LPS 5 μg/ml): 1,458 CPM
- CPM + LPS ([4]; drug 10 ng/ml, LPS 100 μg/ml): 8,603 CPM
- CPM + LPS ([4]; drug 100 ng/ml, LPS 5 μg/ml): 1,760 CPM
- CPM + LPS ([4]; drug 100 ng/ml, LPS 100 μg/ml): 8,518 CPM
- CPM + LPS ([4]; drug 1,000 ng/ml, LPS 5 μg/ml): 1,515 CPM
- CPM + LPS ([4]; drug 1,000 ng/ml, LPS 100 μg/ml): 8,689 CPM
- CPM + LPS ([4]; drug 2,500 ng/ml, LPS 5 μg/ml): 1,522 CPM
- CPM + LPS ([4]; drug 2,500 ng/ml, LPS 100 μg/ml): 7,975 CPM
- CPM + LPS ([4]; drug 5,000 ng/ml, LPS 5 μg/ml): 1,881 CPM
- CPM + LPS ([4]; drug 5,000 ng/ml, LPS 100 μg/ml): 7,788 CPM
- CPM + LPS ([4]; drug 25,000 ng/ml, LPS 5 μg/ml): 2,789 CPM
- CPM + LPS ([4]; drug 25,000 ng/ml, LPS 100 μg/ml): 11,683 CPM
- CPM + LPS ([4]; drug 50,000 ng/ml, LPS 5 μg/ml): 3,132 CPM
- CPM + LPS ([4]; drug 50,000 ng/ml, LPS 100 μg/ml): 14,065 CPM
- effect on B-cell response / LPS induced proliferation, in words ([4]; in vitro): enhance B-cell proliferation
- augmentation of LPS induced lymphocyte proliferation ([4]; in vitro, mouse spleen cells): 30-180%
- effect on B-cell response / LPS induced proliferation, in words ([4]; in vitro, listed as Ia): stimulating the B-cell response

Source: patent US4510144A, “Methods of imparting immunomodulating activity with dihydrothiazolo purine derivatives” (Newport Pharmaceuticals International, priority 1982, dated 1985)
